Consider five molecules from ChEMBL document CHEMBL4842327, “Cyclic mimetics of kinase-inhibitory region of Suppressors of Cytokine Signaling 1: Progress toward novel anti-inflammatory therapeutics” (Eur J Med Chem, 2021).

Structures are written as SMILES. Calls of active or inactive are those of the source. The calls are words filed in the database; no cut-off is given here. Peptide text beside a SMILES is read from it. * marks the point of attachment. Acm = CC(=O)NC*

The test system of series [1] is VSMC. The series can be described thus: Antioxidant activity in IFNgamma/IL6-stimulated mouse VSMC cells assessed as reduction in Nox4 mRNA expression by quantitative real time PCR analysis. Format: functional, cell-based.
Series [2] addresses Tyrosine-protein kinase JAK2 (Mus musculus) (UniProt Q62120). The series can be described thus: Inhibition of JAK2 in mouse VSMC cells assessed as reduction in IFNgamma/IL6-induced Ccl5 mRNA expression by quantitative real time PCR analysis. The class given is cell-based. A general note: In qPCR the cycle at which signal appears reflects the starting amount.
Series [3] concerns the target Tyrosine-protein kinase JAK2 (Homo sapiens, UniProt O60674). The series is described as follows: Binding affinity to N-terminal His-tagged human JAK2 catalytic domain (826 to 1132 residues) expressed in baculovirus-infected Sf21 cells by Microscale thermophoresis analysis. (MST reads how a fluorescent partner responds to local heating, with and without ligand.)
Series [4] relates to VSMC. The series can be described thus: Inhibition of IFN-gamma/IL6-induced cell migration in mouse VSMC cells incubated for 45 hrs by scratch wound healing assay. Format: functional, cell-based.
Series [5] has as its system VSMC. The series can be described thus: Antioxidant activity in mouse VSMC cells assessed as reduction in IFNgamma/IL6-induced intracellular superoxide generation by DHE staining based fluorescence confocal microscopy analysis. Format: functional, cell-based.
Series [6] deals with VSMC. The series is described as follows: Antioxidant activity in IFNgamma/IL6-stimulated mouse VSMC cells assessed as upregulation of Sod1 mRNA expression by quantitative real time PCR analysis. The class given is functional, cell-based.
Series [7] concerns VSMC. The series is described as follows: Antioxidant activity in IFNgamma/IL6-stimulated mouse VSMC cells assessed as upregulation of catalase mRNA expression by quantitative real time PCR analysis. Format: functional, cell-based.
Series [8] addresses Tyrosine-protein kinase JAK2 (Mus musculus) (UniProt Q62120). The series can be described thus: Inhibition of JAK2 in mouse VSMC cells assessed as reduction in IFN-gamma/IL6 induced STAT1 nuclear translocation at 5 uM treated for 90 mins prior to cytokine stimulation and measured after 1 hr by DAPI staining based immunofluorescence confocal microscopy. Conditions: time 150.0 min. Format: cell-based.

Series [9] concerns VSMC. The series is described as follows: Antioxidant activity in IFNgamma/IL6-stimulated mouse VSMC cells assessed as reduction in Nox1 mRNA expression by quantitative real time PCR analysis. Format: functional, cell-based.
For series [10], the target named is Tyrosine-protein kinase JAK2 (Mus musculus) (UniProt Q62120). The series is described as follows: Inhibition of JAK2 in mouse VSMC cells assessed as reduction in IFNgamma/IL6-induced Cxcl10 mRNA expression by quantitative real time PCR analysis. Format: cell-based.
Series [11] has the same target. The series can be described thus: Inhibition of JAK2 in mouse VSMC cells assessed as reduction in IFNgamma/IL6-induced JAK2 phosphorylation by Western blot analysis. The class given is cell-based. A general note: Immunoblotting shows a protein as a band on a membrane.
The target is the same in series [12]. The series can be described thus: Inhibition of JAK2 in mouse RAW264.7 cells assessed as reduction in IFNgamma/IL6-induced Ccl2 mRNA expression by quantitative real time PCR analysis. The class given is cell-based.
The target is the same in series [13]. The series can be described thus: Inhibition of JAK2 in mouse VSMC cells assessed as reduction in IFNgamma/IL6 induced STAT1 phosphorylation at 5 uM treated for 90 mins prior to cytokine stimulation and measured after 1 hr by DAPI staining based immunofluorescence confocal microscopy. The class given is cell-based. The note with it: time 150.0 min.
In the next series the test system is RAW264.7. The series is described as follows: Antioxidant activity in mouse RAW264.7 cells assessed as reduction in IFNgamma/IL6-induced intracellular superoxide generation by DHE staining based fluorescence confocal microscopy analysis. The class given is functional, cell-based.
In series [14] the target is Tyrosine-protein kinase JAK2 (Mus musculus) (UniProt Q62120). The series is described as follows: Inhibition of JAK2 in mouse RAW264.7 cells assessed as reduction in IFNgamma/IL6-induced Ccl5 mRNA expression by quantitative real time PCR analysis. The class given is cell-based.
Series [15] shares this target. The series can be described thus: Inhibition of JAK2 in mouse RAW264.7 cells assessed as reduction in IFNgamma/IL6-induced Cxcl10 mRNA expression by quantitative real time PCR analysis. Format: cell-based.
Series [16] has the same target. The series can be described thus: Inhibition of JAK2 in mouse VSMC cells assessed as reduction in IFNgamma/IL6- induced STAT1 phosphorylation by Western blot analysis. The class given is cell-based.
Series [17] has the same target. The series is described as follows: Inhibition of JAK2 in mouse VSMC cells assessed as reduction in IFNgamma/IL6-induced Ccl2 mRNA expression by quantitative real time PCR analysis. Format: cell-based.
Series [18] in a line: Cytotoxicity against mouse VSMC cells assessed as reduction in cell viability at 25 uM incubated for 6 to 24 hrs in DMEM medium containing 0.5% FBS by MTT assay. The note with it: time 6-24 hrs. The class given is cell-based.
Series [19] can be described thus: Stability of the compound in 25% fetal calf serum assessed as enzyme-mediated compound degradation at 80 uM measured after 24 hrs by RP-HPLC analysis. The class given is ADME, cell-free, Bos taurus. The note with it: cattle, read-out: Drug degradation.
A short description of series [20]: Cytotoxicity against mouse VSMC cells assessed as reduction in cell proliferation at 25 uM incubated for 24 hrs in DMEM medium containing 10% FBS by MTT assay. Format: cell-based.
Series [21] can be described thus: Stability of the compound in 25% fetal calf serum assessed as residual parent compound level at 80 uM measured after 42 hrs by RP-HPLC analysis. The note with it: cattle, read-out: Stabilty. Format: ADME, cell-free, Bos taurus.

Sequence of Tyrosine-protein kinase JAK2 (Mus musculus) (Q62120 whole entry, the tested form may be a part): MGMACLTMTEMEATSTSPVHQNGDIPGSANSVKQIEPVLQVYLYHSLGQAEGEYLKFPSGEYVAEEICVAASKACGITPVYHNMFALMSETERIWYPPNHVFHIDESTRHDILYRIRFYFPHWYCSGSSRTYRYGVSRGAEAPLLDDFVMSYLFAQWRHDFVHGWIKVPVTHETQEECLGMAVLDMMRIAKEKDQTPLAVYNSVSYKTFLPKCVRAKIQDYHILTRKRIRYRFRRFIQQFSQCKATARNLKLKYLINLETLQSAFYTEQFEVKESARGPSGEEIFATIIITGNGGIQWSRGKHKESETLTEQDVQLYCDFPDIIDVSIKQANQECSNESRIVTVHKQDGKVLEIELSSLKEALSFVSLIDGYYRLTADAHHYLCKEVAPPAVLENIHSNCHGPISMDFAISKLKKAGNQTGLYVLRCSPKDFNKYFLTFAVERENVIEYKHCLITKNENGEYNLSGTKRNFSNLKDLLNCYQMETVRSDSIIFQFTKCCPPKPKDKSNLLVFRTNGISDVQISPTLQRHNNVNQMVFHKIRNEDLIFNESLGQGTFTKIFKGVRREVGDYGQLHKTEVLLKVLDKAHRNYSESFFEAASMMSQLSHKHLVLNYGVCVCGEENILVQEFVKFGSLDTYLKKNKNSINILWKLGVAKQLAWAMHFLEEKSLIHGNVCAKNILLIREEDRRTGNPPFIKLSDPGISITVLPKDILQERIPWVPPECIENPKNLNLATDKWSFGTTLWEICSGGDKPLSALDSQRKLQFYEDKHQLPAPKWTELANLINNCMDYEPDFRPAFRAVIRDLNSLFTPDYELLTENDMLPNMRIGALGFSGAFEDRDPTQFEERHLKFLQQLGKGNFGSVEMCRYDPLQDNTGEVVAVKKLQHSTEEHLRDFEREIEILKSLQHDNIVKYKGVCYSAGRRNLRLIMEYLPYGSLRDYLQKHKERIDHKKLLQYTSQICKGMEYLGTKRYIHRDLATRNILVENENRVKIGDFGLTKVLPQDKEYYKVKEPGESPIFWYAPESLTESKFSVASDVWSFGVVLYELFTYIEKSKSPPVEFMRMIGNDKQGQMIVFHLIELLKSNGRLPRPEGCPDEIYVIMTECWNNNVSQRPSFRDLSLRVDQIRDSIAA
Sequence of Tyrosine-protein kinase JAK2 (O60674 whole entry, the tested form may be a part): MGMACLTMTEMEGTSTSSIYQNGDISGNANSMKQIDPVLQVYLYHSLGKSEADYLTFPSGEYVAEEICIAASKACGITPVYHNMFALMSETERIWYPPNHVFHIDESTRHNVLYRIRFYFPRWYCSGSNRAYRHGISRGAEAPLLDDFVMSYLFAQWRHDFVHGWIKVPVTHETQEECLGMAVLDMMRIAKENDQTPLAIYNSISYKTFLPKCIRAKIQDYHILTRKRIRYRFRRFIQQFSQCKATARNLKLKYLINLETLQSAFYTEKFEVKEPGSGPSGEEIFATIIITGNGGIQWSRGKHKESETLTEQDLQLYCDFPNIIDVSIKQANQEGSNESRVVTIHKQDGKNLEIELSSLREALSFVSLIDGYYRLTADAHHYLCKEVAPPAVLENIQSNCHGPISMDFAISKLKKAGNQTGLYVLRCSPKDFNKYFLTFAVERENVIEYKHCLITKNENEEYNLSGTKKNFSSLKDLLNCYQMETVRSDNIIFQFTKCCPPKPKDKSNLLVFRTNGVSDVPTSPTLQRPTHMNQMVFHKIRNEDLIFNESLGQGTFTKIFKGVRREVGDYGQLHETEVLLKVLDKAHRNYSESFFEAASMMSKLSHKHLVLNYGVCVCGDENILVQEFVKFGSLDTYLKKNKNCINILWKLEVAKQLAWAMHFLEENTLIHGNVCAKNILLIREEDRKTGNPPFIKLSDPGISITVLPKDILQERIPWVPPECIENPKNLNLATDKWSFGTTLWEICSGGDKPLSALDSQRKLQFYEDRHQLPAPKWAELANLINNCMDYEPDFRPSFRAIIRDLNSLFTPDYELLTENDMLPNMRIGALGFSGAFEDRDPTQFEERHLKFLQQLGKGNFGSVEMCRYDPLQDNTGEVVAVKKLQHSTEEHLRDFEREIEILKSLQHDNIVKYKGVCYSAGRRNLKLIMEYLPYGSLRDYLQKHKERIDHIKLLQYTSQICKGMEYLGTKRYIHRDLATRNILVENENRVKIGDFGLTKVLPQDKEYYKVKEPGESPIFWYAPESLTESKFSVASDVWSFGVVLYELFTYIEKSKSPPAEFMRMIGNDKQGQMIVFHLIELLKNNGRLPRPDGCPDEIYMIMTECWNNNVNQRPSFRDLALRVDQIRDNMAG

One may read the inhibition as the percentage by which the read-out fell short of the control. A word on the Kd: it is the equilibrium constant for the complex coming apart. A low value points to higher affinity. Consider `CC(=O)NCSC[C@@H]1NC(=O)[C@H]([C@@H](C)O)NC(=O)[C@H](NC(C)=O)CC(=O)NCCCC[C@@H](C(=O)NC(Cc2cnc[nH]2)C(N)=O)NC(=O)[C@@H](CCCNC(=N)N)NC(=O)[C@H](Cc2cccc3ccccc23)NC(=O)[C@H]([C@@H](C)O)NC(=O)[C@H](CCC(N)=O)NC(=O)[C@@H](CCCNC(=N)N)NC1=O` (stereo not given in full), for which the result in the series on VSMC [1], in the series on VSMC [5], in the series with VSMC [6], with VSMC [7], in the series with VSMC [9] and with RAW264.7 was Active. Further, the inhibition entry (in series [2]; in the series with VSMC [4]; in [10]; in series [11]; in [12]; in series [14]) was “Active” in each case. For the same molecule, the inhibition entry in series [15], in series [16] and in [17] was “Active” throughout. This molecule also registered a Kd in series [3] of 35 µM. Moreover, the inhibition in series [8] and in series [13] was 65% in each case.
`CC(=O)NCSC[C@H](NC(=O)[C@@H](NC(=O)[C@H](CC(=O)O)NC(C)=O)[C@@H](C)O)C(=O)N[C@@H](CCCNC(=N)N)C(=O)N[C@@H](CCC(N)=O)C(=O)N[C@H](C(=O)N[C@@H](Cc1ccccc1)C(=O)N[C@@H](CCCNC(=N)N)C(=O)N[C@@H](CO)C(=O)N[C@@H](Cc1cnc[nH]1)C(=O)O)[C@@H](C)O` (Ac-DTC(Acm)RQTFRSH-OH): the result in the series on VSMC [1], in the series with VSMC [5], in the series with VSMC [6], with VSMC [7], with VSMC [9] and in the series with RAW264.7 was Active. For the same molecule, the inhibition result in series [2], in [10], in [11], in [12], in [14] and in series [15] was “Active” in each case. The inhibition entry in series [16] and in series [17] was “Active” each time. For the same molecule, the Activity result in series [18] and in series [20] was “Non-Toxic” throughout. The metabolised at 24 h, 80 µM in series [19] is 50%.
Take `CC(=O)NCSC[C@@H]1NC(=O)[C@H]([C@@H](C)O)NC(=O)[C@@H](NC(C)=O)CC(=O)NCCCC[C@@H](C(=O)N[C@@H](Cc2cnc[nH]2)C(N)=O)NC(=O)[C@H](CCCNC(=N)N)NC(=O)[C@H](Cc2ccccc2)NC(=O)[C@H]([C@@H](C)O)NC(=O)[C@H](CCC(N)=O)NC(=O)[C@H](CCCNC(=N)N)NC1=O`: the Activity result in [18] and in series [20] was “Non-Toxic” each time. In addition, the metabolised at 24 h, 80 µM in series [19] is 40%.
Turning to `CC(=O)NCSC[C@@H]1NC(=O)[C@H]([C@@H](C)O)NC(=O)[C@@H](NC(C)=O)CC(=O)NCCCC[C@@H](C(=O)NC(Cc2cnc[nH]2)C(N)=O)NC(=O)[C@@H](CCCNC(=N)N)NC(=O)[C@H](Cc2ccccc2)NC(=O)[C@H]([C@@H](C)O)NC(=O)[C@H](CCC(N)=O)NC(=O)[C@@H](CCCNC(=N)N)NC1=O` (stereo not given in full), the outcome in the series on VSMC [1], in the series with VSMC [5], in the series with VSMC [6], in the series with VSMC [7], in the series on VSMC [9] and in the series with RAW264.7 was Active. For the same molecule, the inhibition entry (in series [2]; with VSMC [4]; in series [10]; in series [11]; in [12]; in series [14]) was “Active” each time. Besides, the inhibition entry in series [15], in series [16] and in series [17] was “Active” each time. In series [3], this molecule returned a Kd of 44 µM. The inhibition in series [8] and in series [13] was 65% each time.
With `CC(=O)NCSC[C@@H]1NC(=O)[C@H]([C@@H](C)O)NC(=O)[C@@H](NC(C)=O)CC(=O)NCCCC[C@@H](C(=O)N[C@@H](Cc2cnc[nH]2)C(N)=O)NC(=O)[C@H](CCCNC(=N)N)NC(=O)[C@H](Cc2cccc3ccccc23)NC(=O)[C@H]([C@@H](C)O)NC(=O)[C@H](CCC(N)=O)NC(=O)[C@H](CCCNC(=N)N)NC1=O`, the Activity result in series [18] and in series [20] was “Non-Toxic” each time. In series [19], the metabolised at 24 h, 80 µM was found to be 20%. Moreover, the remaining at 42 h, 80 µM in [21] turned out to be 40%.
